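Where inhibition never reached the appropriate level, the endpoint shown equals the highest concentration tested. Otherwise, values were interpolated linearly from a five-concentration, 48-hour dose response in 96-well plates. At the GI50, growth is halved. The concentration for full growth arrest is given as TGI.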
Experiments:
Experiment in all cases: NCI tumour cell line growth inhibition, 48 h
MALME-3M melanoma = test system: MALME-3M melanoma
CAKI-1 renal = test system: CAKI-1 renal
HOP-92 NSCLC = test system: HOP-92 NSCLC
NCI-H23 lung = test system: NCI-H23 lung
SR leukemia = test system: SR leukemia
UACC-62 melanoma = test system: UACC-62 melanoma
SK-OV-3 ovarian = test system: SK-OV-3 ovarian
A549 NSCLC = test system: A549 NSCLC
CCRF-CEM leukemia = test system: CCRF-CEM leukemia

Compound | TGI (MALME-3M melanoma) [µM] | TGI (CAKI-1 renal) [µM] | TGI (HOP-92 NSCLC) [µM] | TGI (NCI-H23 lung) [µM] | TGI (SR leukemia) [µM] | TGI (UACC-62 melanoma) [µM] | TGI (SK-OV-3 ovarian) [µM] | TGI (A549 NSCLC) [µM] | TGI (CCRF-CEM leukemia) [µM] | GI50 (MALME-3M melanoma) [µM] | GI50 (CAKI-1 renal) [µM] | GI50 (HOP-92 NSCLC) [µM] | GI50 (NCI-H23 lung) [µM] | GI50 (UACC-62 melanoma) [µM] | GI50 (SK-OV-3 ovarian) [µM] | GI50 (A549 NSCLC) [µM] | GI50 (CCRF-CEM leukemia) [µM]
CC1(C)C2CCC3(C2)CS(=O)(=O)N2OC231 (stereo not given) | 28.8 | 30.4 | 25.2 | 33.4 | > 100 | 31.8 | > 100 | > 100 | > 100 | – | – | – | – | – | – | – | –
Cc1c(Cl)cccc1NC(=O)CC1C(=O)Nc2ccccc2S1(=O)=O (stereo not given) | 42.4 | 38.8 | 31.7 | 37.3 | 30.3 | 31.7 | – | 33.2 | 47.8 | – | – | – | – | – | – | – | –
CCOC(=O)CC1NC(=O)CS1 (stereo not given) | > 100 | > 100 | > 100 | > 100 | – | > 100 | > 100 | > 100 | > 100 | – | – | – | – | – | – | – | –
CN1C(=O)C(Cl)(C(Cl)(Cl)S(=O)(=O)O)C(=O)c2ccccc21 (stereo not given) | 76.1 | > 100 | > 100 | > 100 | > 100 | > 100 | > 100 | > 100 | > 100 | – | – | – | – | – | – | – | –
N#CC(NNC(=O)c1ccccc1O)c1cccc(O)c1 (stereo not given) | > 100 | > 100 | > 100 | 21.3 | > 100 | – | > 100 | > 100 | > 100 | – | – | – | – | – | – | – | –
O=c1[nH]c2cc3[nH]c4ncccc4c(=O)c3cc2[nH]1 | > 10 | > 10 | > 10 | > 10 | > 10 | > 10 | > 10 | > 10 | > 10 | – | – | – | – | – | – | – | –
O=C1C2Cc3ccccc3CN2C(=O)N1CCN1CCCC1 (stereo not given) | > 100 | > 100 | – | > 100 | – | > 100 | – | > 100 | > 100 | – | – | – | – | – | – | – | –
COC(=O)c1nc(N)[nH]c(=O)c1CCCCCc1c(C(=O)OC)nc(N)[nH]c1=O | > 50 | > 50 | > 50 | > 50 | – | > 50 | > 50 | > 50 | > 50 | – | – | – | – | – | – | – | –
CCN(CC)c1ccc2c(c1)Nc1cc(=C(C#N)C#N)c3ccccc3c1=N2 | > 100 | > 100 | > 100 | > 100 | > 100 | > 100 | > 100 | > 100 | – | – | – | – | – | – | – | – | –
CCOC(=O)C(=O)Nc1c(C(C)C)cccc1C(C)C | > 100 | > 100 | > 100 | > 100 | > 100 | > 100 | > 100 | > 100 | > 100 | – | – | – | – | – | – | – | –
Cc1c2cc[n+](C)cc2c(C)c2c1[nH]c1ccc(O)c(OCC(F)(F)F)c12 | 8.47 | 29 | 17.4 | 5.48 | – | 25.2 | 17.2 | 12.4 | 28.4 | – | – | – | – | – | – | – | –
O=[N+]([O-])c1ccc2c(c1)[O][Sn]([I])([I])[O]2 | > 100 | > 100 | > 100 | > 100 | – | > 100 | > 100 | > 100 | > 100 | > 100 | > 100 | > 100 | 60 | 52 | > 100 | > 100 | 42.3
C[C-](O)O.O/C(=C\[C-](O)c1ccccc1)c1ccccc1.O/C(=C\[C-](O)c1ccccc1)c1ccccc1.[Nd+3] (stereo not given) | 65.9 | 42.2 | 35.3 | 29.4 | – | 45.3 | 64.7 | 48.9 | 15.3 | 16.8 | 11.9 | 12.9 | 4.69 | 6.56 | 16.8 | 18.2 | 2.21
CN=C1SC(=Nc2ccc(N(C)C)cc2)N1C | > 100 | – | 53.5 | > 100 | > 100 | > 100 | 67 | > 100 | > 100 | – | – | – | – | – | – | – | –
CCOC(=O)[C@H]1Nc2ccc(OC)cc2C2c3ccccc3CC21 (stereo not given in full) | > 100 | > 100 | – | > 100 | > 100 | > 100 | – | > 100 | – | – | – | – | – | – | – | – | –
COc1ccc2c(c1)[n+]([O-])c(/C(C)=N/NC(=O)CC#N)c[n+]2[O-] | > 100 | > 100 | > 100 | > 100 | > 100 | > 100 | > 100 | > 100 | > 100 | – | – | – | – | – | – | – | –

— PubChem BioAssay (NCI)
